# Reference: patent publication US9068166B2, “Use of compounds for inducing differentiation of mesenchymal stem cells to chondrocytes” (Industry-Academic Cooperation Foundation Yonsei University, priority 2010, dated 2015)
# How the values were obtained:
# [1] = tested on: human adipose tissue-derived mesenchymal stem cells; assay: Sandwich ELISA of aggrecan expression (chondrocyte marker) in treated mesenchymal stem cells; type: cell-based; details: for induction of differentiation of mesenchymal stem cells to chondrocytes (aggrecan expression) compared with A1942: sandwich ELISA, p<0.001 vs. control, FIG. 5
# Description: (§1) 60 cc of an expanding solution (obtained by adding 30 mL of 1% lidocaine, 30 mL of 0.5% bupivacaine, 10 mL of 4.2% sodium bicarbonate and 1 mg of epinephrine to 1 L of normal water for injection) was applied to the periphery of a navel under sterile conditions. Fats were suctioned using Mercedes 3 mm×9 cm Aspiration Luer Lock Cannula (Byron Medical, Tucson, Ariz.), and then instantly kept on ice. Since a lipoaspirate filtered through a 250 mm sieve included an anesthetic and a contaminant such as blood, the lipoaspirate was washed with phosphate buffered saline (PBS) to remove the anesthetic and the contaminant. Collagenase I (1 mg/mL; Worthington Biochemical Corp., Lakewood, N.J.) was added to the obtained fat tissues, stirred, and then kept at 37° C. for an hour. The suspended adipose tissues were centrifuged at 1,500×g for 10 minutes, and a supernatant containing matured fat cells was discarded. The obtained stroma vascular (SV) cells were washed with 0.1% BSA, suspended in an M-199 medium (including 12.8% fetal bovine serum, heparin, 10,000 U/mL penicillin G, 25 mg/mL amphotericin B, and 10,000 mg/mL streptomycin), plated on a gelatin-coated tissue culture flask, and then incubated. After 24 hours, the tissue culture flask was washed to remove non-attached cells, and the incubation was continued.
# […] In this case, the mesenchymal stem cells were incubated for 11 days while replacing a medium including the compound of Formula 1 with a fresh one once every 3 days.
# A capture antibody was bound to the bottom of each well, and the plate was then incubated overnight at 4° C. The plate was washed twice with PBS (Gibco), and treated with 100 μl of PBS containing 3% BSA at room temperature for 2 to 3 hours. The plate was washed twice with PBS, and a cell lysate was added to each well. Then, the plate was incubated at room temperature for 2 hours under a wet atmosphere. The plate was washed four times with PBS containing 0.02% Tween-20 (Sigma). A detector antibody was added to the plate, and the plate was then incubated at room temperature for 2 hours under a wet atmosphere. Thereafter, the plate was incubated with a peroxidase-conjugated secondary antibody at 37° C. for an hour. Finally, the plate was treated with 100 μl of a tetramethylbenzidine (TMB) solution (Sigma) as a substrate, and 25 μl of 0.1 M H2SO4 was added as a terminating buffer to stop the reaction. Immediately after the reaction, the absorbance was measured at 450 nm using an ELISA plate reader (Bio-Rad).
# [2] = tested on: fibronectin, α5-integrin, N-cadherin; assay: Semi-quantitative RT-PCR of fibronectin, integrin α5β1 and N-cadherin in treated mesenchymal stem cells; type: cell-based, human; details: 1 μM for 11 days, normalized to GAPDH, FIG. 4
# Description: as §1
# When the mesenchymal stem cells were subcultured twice, the mesenchymal stem cells were seeded at a density of 2×10^5 cells/ml in a 60 mm plate containing the same medium as described above, and treated with the compound of Formula 1 (each of the compounds of Examples 1 to 28) at a final concentration of 10 nM, 100 nM, 1 μM, or 10 μM. In this case, the mesenchymal stem cells were incubated for 11 days while replacing a medium including the compound of Formula 1 with a fresh one once every 3 days.
# Expression levels of various genes were analyzed through an RT-PCR method. Total RNA was obtained using an Ultraspect™-II RNA system (Biotecx Laboratories, Inc., USA) and an easy-BLUE™ kit (Intron Biotechnology, Seoul, South Korea). […]
# ERK = assay: Western blotting of ERK phosphorylation in treated mesenchymal stem cells; type: cell-based, human; details: FIG. 3
# Description: 60 cc of an expanding solution (obtained by adding 30 mL of 1% lidocaine, 30 mL of 0.5% bupivacaine, 10 mL of 4.2% sodium bicarbonate and 1 mg of epinephrine to 1 L of normal water for injection) was applied to the periphery of a navel under sterile conditions. Fats were suctioned using Mercedes 3 mm×9 cm Aspiration Luer Lock Cannula (Byron Medical, Tucson, Ariz.), and then instantly kept on ice. Since a lipoaspirate filtered through a 250 mm sieve included an anesthetic and a contaminant such as blood, the lipoaspirate was washed with phosphate buffered saline (PBS) to remove the anesthetic and the contaminant. […]
# Cells were washed once with PBS, and lysed for approximately 20 minutes in a lysis buffer (Cell Signaling Technology) containing 20 mM Tris (pH 7.5), 150 mM NaCl, 1 mM Na2-EDTA, 1 mM EGTA, 1% Triton, 2.5 mM sodium pyrophosphate, 1 mM β-glycerophosphate, 1 mM Na3VO4, 1 mg/ml leupeptin and 1 mM phenylmethylsulfonyl fluoride. […] A concentration of proteins was measured using a Bradford protein assay kit (Bio-Rad). A quantitative protein was separated on a 12% sodium dodecyl sulfate-polyacrylamide gel, and transferred to a polyvinylidene difluoride membrane (Millipore). […] After thorough washing, a band was detected using an improved chemiluminogenic reagent (GE Healthcare Life Sciences). The intensity of the band was quantified using an Image J 1.40 g software (NIH).
# [3] = tested on: human adipose tissue-derived mesenchymal stem cells; assay: Alcian Blue dyeing of sulfated proteoglycan (quantified chondrogenesis); type: cell-based; details: 1 μM, 11 days, optical density at 650 nm, p<0.05 vs. control, FIG. 1
# Description: as §1, with “The obtained stroma vascular (SV) cells were washed with 0.1% BSA, suspended in an M-199 medium (including 12.8% fetal bovine serum, heparin, 10,000 U/mL penicillin G, 25 mg/mL amphotericin B, and 10,000 mg/mL streptomycin), plated on a gelatin-coated tissue culture flask, and then incubated. After 24 hours, the tissue culture flask was washed to remove non-attached cells, and the incubation was continued.” left out
# Cells were first washed three times with PBS (Gibco), and then immobilized with 100% methanol (Sigma) at −20° C. for 10 minutes. […] To quantify the dyeing intensity, the dyed culture plate was washed three times with PBS, and each well was extracted with 1 ml of 6 M guanidine-HCl (Sigma) overnight at room temperature. The optical density of the extracted dye was measured at 650 nm.
structure (smiles),measurement,setting,value
"O=S(=O)(Nc1cccc2ccc(O)cc12)c1cccc2cccnc12 [Compound A1943, Quinoline-8-sulfonic acid (7-hydroxy-naphthalen-1-yl)-amide]",induction of differentiation of mesenchymal stem cells to chondrocytes (aggrecan expression) compared with A1942,[1],at a level similar to the A1942 compound
"O=S(=O)(Nc1ccc(O)cc1)c1cccc2cccnc12 [Compound A1942, Quinoline-8-sulfonic acid (4-hydroxy-phenyl)-amide]",expression level of N-cadherin,[2],decreased with time
same,expression level of fibronectin,[2],decreased with time
same,expression level of α5-integrin,[2],decreased with time
same,expression level of aggrecan,"[1]; 0.1, 0.5 and 1 μM for 11 days, FIG. 2",increased in a dose-dependent manner
same,phosphorylation level of ERK,ERK; 1 μM for 11 days,increased with time
same,relative absorbance (Alcian Blue) versus control,[3],approximately 3 times
"Cc1ccc(S(=O)(=O)Nc2ccc(O)c3ccccc23)cc1 [Compound A1950, N-(4-hydroxy-naphthalen-1-yl)-4-methyl-benzenesulfonamide]",induction of differentiation of mesenchymal stem cells to chondrocytes (aggrecan expression) compared with A1942,[1],at a level similar to the A1942 compound
"O=S(=O)(Nc1cccc2c(O)cccc12)c1ccc(-c2ccccc2)cc1 [Compound A1949, Biphenyl-4-sulfonic acid (5-hydroxy-naphthalen-1-yl)-amide]",induction of differentiation of mesenchymal stem cells to chondrocytes (aggrecan expression) compared with A1942,[1],at a level similar to the A1942 compound
"N#CC(=C(/N)Sc1ccccc1N)/C(C#N)=C(\N)Sc1ccccc1N [Compound U0126, reference compound]","expression level of aggrecan, co-treatment with A1942","[1]; mesenchymal stem cells treated with 1 μM A1942 + U0126, FIG. 2",reduced an expression level of the aggrecan
same,"phosphorylation level of ERK, group treated with A1942 and U0126","ERK; A1942 1 μM plus U0126, 11 days",did not increase with time
"CC(C)(C)c1ccc(S(=O)(=O)Nc2ccc(O)c(C(=O)O)c2)cc1 [Compound A1948, 5-(4-Tert-butyl-benzenesulfonyl-amino)-2-hydroxy-benzoic acid]",induction of differentiation of mesenchymal stem cells to chondrocytes (aggrecan expression) compared with A1942,[1],at a level similar to the A1942 compound
"O=C(O)c1cc(NS(=O)(=O)c2cccc3cccnc23)ccc1O [Compound A1944, 2-Hydroxy-5-(quinoline-8-sulfonylamino)-benzoic acid]",induction of differentiation of mesenchymal stem cells to chondrocytes (aggrecan expression) compared with A1942,[1],at a level similar to the A1942 compound
